# How the values were obtained:
# 1X-Ab = assay: Competitive antigen ELISA, cross-reactivity of 1X-Ab; format: binding, rabbit; settings: for % Cross-Reaction 1X-Ab: 0 = absence of inhibition or inhibition no higher than 40% at highest concentration tested (5 × 10^-3 M)
# Method: (§1) Four mature females New Zealand white rabbits (Charles River Canada, St-Constant, Que., Canada) were used for antibody production. The protocol employed in this study was approved by the McGill University Animal Care Committee in accordance with the guidelines from the Canadian Council on Animal Care. An isotonic saline solution (0.6 mL) containing […] of BSA conjugated antigen was emulsified with 0.6 mL of a complete Freund's adjuvant. 0.5 mL of the emulsion (100 mg of antigen) was injected per rabbit intramuscularly or subcutaneously. Rabbits were subsequently boosted at intervals of three weeks with 50 mg of antigen emulsified in incomplete Freund's adjuvant. Blood was collected by venipuncture of the ear 10-14 days after boosting. Antisera were stores at 4° C. in the presence of 0.01% sodium azide. Buffers and water without additives were filtered through millipore filters and kept for 1 week. BSA, antibodies, Tween™ 20 and horse radish peroxidase conjugates were added to these buffers and water just prior to use. Urine samples were usually collected 4 hours after drinking a cup of coffee (instant or brewed with approximately 100 mg of caffeine per cup) and stored at -80° C. They were diluted 10 times with sodium phosphate buffer (620 mosm, pH 7.50) and were subsequently diluted with water to give concentrations of AAMU and 1X no higher than 3×10^-6 M in the ELISA. All the pipettings were done with an eight-channel pipette, except those of the antibody and sample solutions. Starting with the last well, 100 μL of a carbonate buffer (100 mM, pH 9.6) containing 2.5 μg mL^-1 antibodies was pipetted. […] After the initial wash, unoccupied sites were blocked by incubation for 90 min. at room temperature with 100 μL TPB containing 3% BSA. The wells were washed four times with 100 μL TPB. […] AAMU or 1X, 2×10^-4 to 2×10^-8 M) or sample in duplicate. The microplate was gently shaken with an orbital shaker at room temperature for 3-4 hours. […] To the washed plate was added 150 μL of a substrate buffer composed of citric acid (25 mM) and sodium phosphate dibasic buffer (50 mM, pH 5.0) containing 0.06% hydrogen peroxide and 0.04% o-phenylenediamine hydrochloride. […] Buffers and water without additives were filtered through millipore filters and kept for 1 week. BSA, antibodies, Tween™ 20 and horse radish peroxidase conjugates were added to these buffers and water just prior to use. Urine samples were usually collected 4 hours after drinking a cup of coffee (instant or brewed with approximately 100 mg of caffeine per cup) and stored at -80° C. They were diluted 10 times with sodium phosphate buffer (620 mosm, pH 7.50) and were subsequently diluted with water to give concentrations of AAMU and 1X no higher than 3×10^-6 M in the ELISA. All the pipettings were done with an eight-channel pipette, except those of the antibody and sample solutions. Starting with the last well, 100 μL of a carbonate buffer (100 mM, pH 9.6) containing 2.5 μg mL^-1 antibodies was pipetted. […] After the initial wash, unoccupied sites were blocked by incubation for 90 min. at room temperature with 100 μL TPB containing 3% BSA. The wells were washed four times with 100 μL TPB. […] AAMU or 1X, 2×10^-4 to 2×10^-8 M) or sample in duplicate. The microplate was gently shaken with an orbital shaker at room temperature for 3-4 hours. […] To the washed plate was added 150 μL of a substrate buffer composed of citric acid (25 mM) and sodium phosphate dibasic buffer (50 mM, pH 5.0) containing 0.06% hydrogen peroxide and 0.04% o-phenylenediamine hydrochloride. […] Each curve represents triplicate determinations in a single run. The error bars represent standard deviations. For data point with no error bars, the error bars are less the size of the symbol. […] The cross reactivities of AAMU-Ab and 1X-Ab were tested using a wide variety of caffeine metabolites and structural analogs (Table 1 below).
# AAMU-Ab = assay: Competitive antigen ELISA, cross-reactivity of AAMU-Ab; format: binding, rabbit; settings: for % Cross-Reaction AAMU-Ab: 0 = absence of inhibition or inhibition no higher than 40% at highest concentration tested (5 × 10^-3 M)
# Method: as §1
# [1] = system: N-acetyltransferase (NAT2); settings: rapid acetylators at greater risk of severe toxicity; cited from earlier work
"IC50 (AAMU-Ab; AAMU-Ab, read-out: concentration required for 50% inhibition in the competitive antigen ELISA)","IC50 (1X-Ab; 1X-Ab, read-out: concentration required for 50% inhibition in the competitive antigen ELISA)",Compound,% Cross-Reaction 1X-Ab (1X-Ab),% Cross-Reaction AAMU-Ab (AAMU-Ab),correlation between toxicity and acetylator phenotype [1]
,,O=c1[nH]cnc2nc[nH]c12 [Hypoxanthine],0%,0%,
,,Cn1cnc2[nH]c(=O)[nH]c(=O)c21 [7-Methyl Xanthine],0%,0%,
,,"Cn1c(=O)c2c(ncn2C)n(C)c1=O [1,3,7-Trimethyl Xanthine (Caffeine), 1,3,7-Trimethyl Xanthine]",0%,0%,
,,O=c1[nH]c(=O)c2[nH]c(=O)[nH]c2[nH]1 [Uric acid],0%,0%,
,,"Cn1c(=O)[nH]c2ncn(C)c2c1=O [1,7-Dimethyl Xanthine (Paraxanthine), 1,7-Dimethyl Xanthine]",0.5%,0%,
,,O=c1cc[nH]c(=O)[nH]1 [Uracil],0%,0%,
,,Nc1nc2nc[nH]c2c(=O)[nH]1 [Guanine],0%,0%,
,,Cc1nc2[nH]c(=O)[nH]c(=O)c2[nH]1 [8-Methyl Xanthine],0%,0%,
,,CN(C)CCN1C(=O)c2cccc3cc(N)cc(c23)C1=O [amonafide],,,direct correlation between toxicity and the acetylator phenotype
,,"Cn1c(=O)c2[nH]cnc2n(C)c1=O [1,3-Dimethyl Xanthine (Theophylline), 1,3-Dimethyl Xanthine]",0.2%,0%,
,,Cn1c(=O)[nH]c(=O)c2[nH]cnc21 [3-Methyl Xanthine],0%,0%,
,,Cn1c(=O)[nH]c2[nH]c(=O)[nH]c2c1=O [1-Methyluric acid],11%,0%,
,,CC(=O)Nc1c(N)[nH]c(=O)[nH]c1=O [5-Acetamino-6-amino-uracil],0%,0.6%,
,,"Cn1c(=O)[nH]c2[nH]c(=O)n(C)c2c1=O [1,7-Dimethyluric acid]",0%,0%,
1.5 µM,,CC(=O)Nc1c(N)[nH]c(=O)n(C)c1=O,0%,100%,
,10 µM,"Cn1c(=O)[nH]c2nc[nH]c2c1=O [1-Methyl Xanthine (1X), 1-Methyl Xanthine]",100%,0%,
,,"CC(=O)Nc1c(N)n(C)c(=O)n(C)c1=O [5-Acetamino-6-amino-1,3-dimethyluracil]",0%,0%,
,,O=c1[nH]c(=O)c2[nH]cnc2[nH]1 [Xanthine],0%,0%,
,,"Cn1cnc2c1c(=O)[nH]c(=O)n2C [3,7-Dimethyl Xanthine (Theobromine), 3,7-Dimethyl Xanthine]",0%,0%,
